# Measured values from US7709471B2, “Compounds” (AstraZeneca AB, priority 2006, dated 2010).
# Where two headings read alike, the source gives them in different places.
# System: human colon tumour cell line HT29
# Experiment: Cellular Assay (phosphohistone H3 Ser10 mitotic marker, HT29)
# Type: cell-based
# Details: read-out: IC50 (cellular assay, phosphohistone H3)
"IC50 (HT-29, 24 h, HT29 cells) [nM]",SMILES,"IC50 (HT-29, HT29 cells, 24 h) [nM]"
< 300,"CCN1CCC(NC(=O)c2ccc(Nc3ncc4c(n3)N(C(C)C)CC(CC)(CC)C(=O)N4C)c(OC)c2)CC1 [Example 305, 4-[(4,4-diethyl-6-methyl-5-oxo-2-propan-2-yl-2,6,9,11-tetrazabicyclo[5.4.0]undeca-7,9,11-trien-10-yl)amino]-N-(1-ethyl-4-piperidyl)-3-methoxy-benzamide]",–
< 300,"CN1CC[C@@H](NC(=O)c2cc(F)c(Nc3ncc4c(n3)N(C3CCCC3)CC3(CC3)C(=O)N4C)cc2F)C1 [Example 400, 4-(9′-cyclopentyl-5′-methyl-6′-oxo-5′,6′,8′,9′-tetrahydrospiro[cyclopropane-1,7′-pyrimido[5,4-b][1,4]diazepine]-2′-ylamino)-2,5-difluoro-N-[(3R)-1-methylpyrrolidin-3-yl]benzamide]",–
< 300,"CN1C(=O)C2(CC2)CN(C2CCCCC2)c2nc(Nc3cc(F)c(C(=O)NC4CCC(N(C)C)CC4)cc3Cl)ncc21 (stereo not shown) [Example 437, 5-chloro-4-(9′-cyclohexyl-5′-methyl-6′-oxo-5′,6′,8′,9′-tetrahydrospiro[cyclopropane-1,7′-pyrimido[5,4-b][1,4]diazepine]-2′-ylamino)-N-(4-dimethylaminocyclohexyl)-2-fluoro-benzamide]",–
< 1000,"CN1C(=O)CCN(C2CCCCC2)c2nc(Nc3cc(F)c(C(=O)NCC4(CN5CCCC5)CC4)cc3F)ncc21 [Example 413, 4-[(2-cyclohexyl-6-methyl-5-oxo-2,6,9,11-tetrazabicyclo[5.4.0]undeca-7,9,11-trien-10-yl)amino]-2,5-difluoro-N-[[1-(pyrrolidin-1-ylmethyl)cyclopropyl]methyl]benzamide]",–
< 300,"COc1cc(C(=O)NCCCN(C)C)ccc1Nc1ncc2c(n1)N(C(C)C)CC(C)(C)C(=O)N2C [Example 303, N-(3-dimethylaminopropyl)-3-methoxy-4-[(4,4,6-trimethyl-5-oxo-2-propan-2-yl-2,6,9,11-tetrazabicyclo[5.4.0]undeca-7,9,11-trien-10-yl)amino]benzamide]",–
< 300,"CCN1CCC(NC(=O)c2cc(Cl)c(Nc3ncc4c(n3)N(C3CCCC3)CC3(CC3)C(=O)N4C)cc2F)CC1 [Example 393, 5-chloro-4-(9′-cyclopentyl-5′-methyl-6′-oxo-5′,6′,8′,9′-tetrahydrospiro[cyclopropane-1,7′-pyrimido[5,4-b][1,4]diazepine]-2′-ylamino)-N-(1-ethyl-4-piperidyl)-2-fluoro-benzamide]",–
< 300,"COc1cc(C(=O)NCCCN(C)C)ccc1Nc1ncc2c(n1)N(C1CCCC1)CC(C)(C)C(=O)N2C [Example 357, 4-[(2-cyclopentyl-4,4,6-trimethyl-5-oxo-2,6,9,11-tetrazabicyclo[5.4.0]undeca-7,9,11-trien-10-yl)amino]-N-(3-dimethylaminopropyl)-3-methoxy-benzamide]",–
< 300,"CN1CCC(NC(=O)c2cc(Cl)c(Nc3ncc4c(n3)N(C3CCCC3)CC3(CC3)C(=O)N4C)cc2F)CC1 [Example 389, 5-chloro-4-(9′-cyclopentyl-5′-methyl-6′-oxo-5′,6′,8′,9′-tetrahydrospiro[cyclopropane-1,7′-pyrimido[5,4-b][1,4]diazepine]-2′-ylamino)-2-fluoro-N-(1-methyl-4-piperidyl)benzamide]",–
< 1000,"CN1C(=O)CCN(C2CCCCC2)c2nc(Nc3cc(F)c(C(=O)NCCN4CCCC4)cc3F)ncc21 [Example 416, 4-[(2-cyclohexyl-6-methyl-5-oxo-2,6,9,11-tetrazabicyclo[5.4.0]undeca-7,9,11-trien-10-yl)amino]-2,5-difluoro-N-(2-pyrrolidin-1-ylethyl)benzamide]",–
< 300,"CCN1CCC(NC(=O)c2ccc(Nc3ncc4c(n3)N(C3CCCC3)CC3(CC3)C(=O)N4C)c(F)c2)CC1 [Example 406, 4-(9′-cyclopentyl-5′-methyl-6′-oxo-5′,6′,8′,9′-tetrahydrospiro[cyclopropane-1,7′-pyrimido[5,4-b][1,4]diazepine]-2′-ylamino)-N-(1-ethyl-4-piperidyl)-3-fluoro-benzamide]",–
< 300,"CCN1CCC(NC(=O)c2cc(OC)c(Nc3ncc4c(n3)N(C3CCCCC3)CC3(CC3)C(=O)N4C)cc2F)CC1 [Example 443, 4-(9′-cyclohexyl-5′-methyl-6′-oxo-5′,6′,8′,9′-tetrahydrospiro[cyclopropane-1,7′-pyrimido[5,4-b][1,4]diazepine]-2′-ylamino)-N-(1-ethyl-4-piperidyl)-2-fluoro-5-methoxy-benzamide]",–
< 300,"CN(C)CCCNC(=O)c1ccc(Nc2ncc3c(n2)N(C2CCCC2)CC(C)(C)C(=O)N3C)c(Cl)c1 [Example 362, 3-chloro-4-[(2-cyclopentyl-4,4,6-trimethyl-5-oxo-2,6,9,11-tetrazabicyclo[5.4.0]undeca-7,9,11-trien-10-yl)amino]-N-(3-dimethylaminopropyl)benzamide]",–
< 300,"COc1cc(C(=O)NCCN2CCCC2)c(F)cc1Nc1ncc2c(n1)N(C1CCCC1)CC1(CC1)C(=O)N2C [Example 398, 4-(9′-cyclopentyl-5′-methyl-6′-oxo-5′,6′,8′,9′-tetrahydrospiro[cyclopropane-1,7′-pyrimido[5,4-b][1,4]diazepine]-2′-ylamino)-2-fluoro-5-methoxy-N-(2-pyrrolidin-1-ylethyl)benzamide]",–
< 300,"CN1CCC(NC(=O)c2cc(F)c(Nc3ncc4c(n3)N(C3CCCCC3)CC3(CC3)C(=O)N4C)cc2F)CC1 [Example 436, 4-(9′-cyclohexyl-5′-methyl-6′-oxo-5′,6′,8′,9′-tetrahydrospiro[cyclopropane-1,7′-pyrimido[5,4-b][1,4]diazepine]-2′-ylamino)-2,5-difluoro-N-(1-methyl-4-piperidyl)benzamide]",–
< 300,"COc1cc(C(=O)NC2CCCCN(C)C2)ccc1Nc1ncc2c(n1)N(C1CCCC1)CCC(=O)N2C (stereo not shown) [Example 453, 4-[(2-cyclopentyl-6-methyl-5-oxo-2,6,9,11-tetrazabicyclo[5.4.0]undeca-7,9,11-trien-10-yl)amino]-3-methoxy-N-(1-methylazepan-3-yl)benzamide]",–
< 300,"COc1cc(C(=O)NCCN(C)C)ccc1Nc1ncc2c(n1)N(C1CCCCC1)CCC(=O)N2C [Example 426, 4-[(2-cyclohexyl-6-methyl-5-oxo-2,6,9,11-tetrazabicyclo[5.4.0]undeca-7,9,11-trien-10-yl)amino]-N-(2-dimethylaminoethyl)-3-methoxy-benzamide]",–
< 300,"CCN1CCC(NC(=O)c2cc(OC)c(Nc3ncc4c(n3)N(C3CCCC3)CC(CC)(CC)C(=O)N4C)cc2F)CC1 [Example 379, 4-[(2-cyclopentyl-4,4-diethyl-6-methyl-5-oxo-2,6,9,11-tetrazabicyclo[5.4.0]undeca-7,9,11-trien-10-yl)amino]-N-(1-ethyl-4-piperidyl)-2-fluoro-5-methoxy-benzamide]",–
< 300,"CCC1(CC)CN(C(C)C)c2nc(Nc3ccc(C(=O)NC4CCN(C)CC4)cc3OC)ncc2N(C)C1=O [Example 304, 4-[(4,4-diethyl-6-methyl-5-oxo-2-propan-2-yl-2,6,9,11-tetrazabicyclo[5.4.0]undeca-7,9,11-trien-10-yl)amino]-3-methoxy-N-(1-methyl-4-piperidyl)benzamide]",–
–,"CN1CCC(NC(=O)c2ccc(Nc3ncc4c(n3)N(C3CCCC3)CCC(=O)N4C)cc2)CC1 [Example 2, 4-[(2-cyclopentyl-6-methyl-5-oxo-2,6,9,11-tetrazabicyclo[5.4.0]undeca-8,10,12-trien-10-yl)amino]-N-(1-methyl-4-piperidyl)benzamide]",< 300
< 300,"COc1cc(C(=O)N[C@@H]2CCN(C)C2)c(F)cc1Nc1ncc2c(n1)N(C1CCCCC1)CCC(=O)N2C [Example 420, 4-[(2-cyclohexyl-6-methyl-5-oxo-2,6,9,11-tetrazabicyclo[5.4.0]undeca-7,9,11-trien-10-yl)amino]-2-fluoro-5-methoxy-N-[(3R)-1-methylpyrrolidin-3-yl]benzamide]",–
< 30000,"CCOc1cc(C(=O)NC2CCC(N(C)C)CC2)ccc1Nc1ncc2c(n1)N(C(C)C)CCC(=O)N2C (stereo not shown) [Example 286, N-(4-dimethylaminocyclohexyl)-3-ethoxy-4-[(6-methyl-5-oxo-2-propan-2-yl-2,6,9,11-tetrazabicyclo[5.4.0]undeca-7,9,11-trien-10-yl)amino]benzamide]",–
< 300,"CCN1CCC(NC(=O)c2ccc(Nc3ncc4c(n3)N(C(C)C)CC(C)(C)C(=O)N4C)c(OC)c2)CC1 [Example 300, N-(1-ethyl-4-piperidyl)-3-methoxy-4-[(4,4,6-trimethyl-5-oxo-2-propan-2-yl-2,6,9,11-tetrazabicyclo[5.4.0]undeca-7,9,11-trien-10-yl)amino]benzamide]",–

SMILES,"IC50 (HT-29, 24 h, HT29 cells) [nM]","IC50 (HT-29, HT29 cells, 24 h) [nM]"
"COc1cc(C(=O)NC2C[C@H]3CCC[C@@H](C2)N3C)ccc1Nc1ncc2c(n1)N(C1CCCC1)CC(C)(C)C(=O)N2 (stereo partly drawn) [Example 278, 4-[(2-cyclopentyl-4,4-dimethyl-5-oxo-2,6,9,11-tetrazabicyclo[5.4.0]undeca-7,9,11-trien-10-yl)amino]-3-methoxy-N-[(1S,5R)-9-methyl-9-azabicyclo[3.3.1]non-7-yl]benzamide]",< 1000,–
"CN1C(=O)C2(CC2)CN(C2CCCC2)c2nc(Nc3ccc(C(=O)NC4C[C@H]5CCC[C@@H](C4)N5C)cc3F)ncc21 (stereo partly drawn) [Example 388, 4-(9′-cyclopentyl-5′-methyl-6′-oxo-5′,6′,8′,9′-tetrahydrospiro[cyclopropane-1,7′-pyrimido[5,4-b][1,4]diazepine]-2′-ylamino)-3-fluoro-N-[(1S,5R)-9-methyl-9-azabicyclo[3.3.1]non-7-yl]benzamide]",< 300,–
"CN1C(=O)C2(CC2)CN(C2CCCCC2)c2nc(Nc3ccc(C(=O)NC4C[C@H]5CCC[C@@H](C4)N5C)cc3F)ncc21 (stereo partly drawn) [Example 435, 4-(9′-cyclohexyl-5′-methyl-6′-oxo-5′,6′,8′,9′-tetrahydrospiro[cyclopropane-1,7′-pyrimido[5,4-b][1,4]diazepine]-2′-ylamino)-3-fluoro-N-[(1S,5R)-9-methyl-9-azabicyclo[3.3.1]non-7-yl]benzamide]",< 300,–
